According to US20260284208A1, “SYSTEM” (Oxford University Innovation Limited, priority 2023, published 2026):

Tested on: library of 8,380 IKZF3 degrons (ZF-eGFP/mCherry reporter) in Jurkat cells
Test: Pooled library screen (FACS, NGS, limma voom LogFC of positive vs negative read counts)
Type: cell-based, human
Procedure: A library of 8,380 IKZF3 degrons was cloned into pLVX-Sprout to create the eGFP/mCherry protein degradation reporter plasmid pool. A lentivirus pool was then generated using the Lenti-X lentiviral vector production method.
Jurkat cells were transduced at a multiplicity of infection of <0.3 with the lentivirus vector library in order to maximise the number of cells with a single integration. Transductions were carried out in 6 well TC-treated cell culture dishes (Falcon) with 3×10^6 cells per well. Cells were incubated for 2 days at 37° C. and 5% CO2 before the supernatant was removed and replaced with fresh media. 6 days post-transduction, mCherry+ cells were isolated via FACS using the FACS Aria Fusion (BD) in a buffer containing PBS (Gibco), 2 mM EDTA (Gibco), 25 mM HEPES (Sigma) and 1% BSA (Sigma). 8 days later, cells were treated with DMSO or a thalidomide analog for 18 hours at 37° C. and 5% CO2. mCherry+GFPlow and NOT(mCherry+GFPlow) cells were sorted by FACS using the FACS Aria Fusion (BD). DMSO treated cells were used to set the mCherry+GFPlow gate and dead cells were excluded from sorting by staining cells with 1 μg/mL DAPI (ThermoFisher). gDNA was isolated using the Maxwell RSC 48 (Promega). gDNA from cells that were unsorted and untreated were also isolated to determine the library representation on the day of compound treatment. Throughout the screen >600× coverage of the library was maintained. 3 biological replicates were carried out with a new transduction taking place each time.
A two-step PCR was used where the first PCR (PCR1) amplified the integrated degron sequence from gDNA and the second PCR (PCR2) added Illumina adaptors and barcodes to permit multiplexing. See Supp F for PCR1 and PCR2 primers. Q5 Hot Start High-Fidelity 2× Master Mix (New England Biolabs) was used for both PCRs. Sufficient gDNA was amplified in PCR1 in order to maintain >600× coverage and amplicons were purified using solid phase reversible immobilization (SPRI) beads (Beckman Coulter). Purified PCR1 products were analysed on the Tapestation 4200 (Agilent) to confirm purity prior to proceeding to PCR2. Sufficient PCR1 product was amplified in PCR2 in order to maintain >600× coverage and amplicons were run on a 2% agarose TAE gel. Target bands were excised and purified using the NucleoSpin Gel and PCR Clean-up Kit (Machery Nagel). Amplicons were analysed on the Tapestation 4200 and quantified using Qubit dsDNA HS kit (ThermoFisher). PCR products were pooled and sequenced as paired-reads on the NovaSeq (Illumina) using a SP2 200 cycles kit (Illumina).
Count distributions, percentage of read mapping, library coverage and replicate correlation per sample were assessed for QC purposes.
To carry out the library screen, we used the same plasmid construct as in our earlier flow cytometry assays, but pooling all 8,380 mutants together into one Jurkat population, ensuring a copy number of one plasmid per cell (FIG. 4B). […] These GFP-negative cells were then separated from the remaining GFP-positive population using fluorescence activated cell sorting (FACS). These two populations were then sequenced and the relative abundance of every mutant in both populations compared to provide a log FC value for each mutant sequence. This value indicated how frequently a sequence is observed in the GFP-negative population relative to the GFP-positive population, and therefore how effective a degron it is for that particular IMID compound.

SMILES: CN1CCN(c2ccc3c(c2)C(=O)N(C2CCC(=O)NC2=O)C3=O)CC1 (centres unmarked) [B08, 2-(2,6-dioxopiperidin-3-yl)-5-(4-methylpiperazin-1-yl)isoindoline-1,3-dione]
- B08_logFC (Degron-ID 115, SEQ ID NO 2354, 46F_47A_49E_50V_52G_53A_54S_55F_67L): 2.665
- B08_logFC (Degron-ID 312, SEQ ID NO 2356, 46F_47C_49E_50I_52G_53A_54P_55F_67L): 2.662
- B08_logFC (Degron-ID 313, SEQ ID NO 2359, 46F_47C_49E_50I_52G_53A_54Q_55F_67L): 2.659
- B08_logFC (Degron-ID 316, SEQ ID NO 2364, 46F_47C_49E_50I_52G_53A_54T_55F_67L): 2.641
- B08_logFC (Degron-ID 355, SEQ ID NO 2334, 46F_47C_49E_50V_52G_53A_54S_55F_67L): 2.718
- B08_logFC (Degron-ID 432, SEQ ID NO 2346, 46F_47C_49P_50I_52G_53A_54P_55F_67L): 2.683
- B08_logFC (Degron-ID 480, SEQ ID NO 2273, 46F_47D_49D_50I_52G_53A_54A_55F_67L): 2.887
- B08_logFC (Degron-ID 495, SEQ ID NO 2327, 46F_47D_49D_50I_52G_53A_54S_55F_67L): 2.748
- B08_logFC (Degron-ID 556, SEQ ID NO 2290, 46F_47D_49E_50I_52G_53A_54T_55F_67L): 2.821
- B08_logFC (Degron-ID 557, SEQ ID NO 2336, 46F_47D_49E_50I_52G_53A_54V_55F_67L): 2.714
- B08_logFC (Degron-ID 591, SEQ ID NO 2348, 46F_47D_49E_50V_52G_53A_54N_55F_67L): 2.678
- B08_logFC (Degron-ID 593, SEQ ID NO 2355, 46F_47D_49E_50V_52G_53A_54Q_55F_67L): 2.664
- B08_logFC (Degron-ID 600, SEQ ID NO 2284, 46F_47D_49N_50I_52G_53A_54A_55F_67L): 2.845
- B08_logFC (Degron-ID 825, SEQ ID NO 2282, 46F_47E_49E_50V_52G_53A_54G_55F_67L): 2.853
- B08_logFC (Degron-ID 852, SEQ ID NO 2326, 46F_47E_49N_50I_52G_53A_54P_55F_67L): 2.749
- B08_logFC (Degron-ID 966, SEQ ID NO 2283, 46F_47F_49D_50I_52G_53A_54H_55F_67L): 2.85
- B08_logFC (Degron-ID 1014, SEQ ID NO 2319, 46F_47F_49D_50V_52G_53A_54R_55F_67L): 2.759
- B08_logFC (Degron-ID 1079, SEQ ID NO 2329, 46F_47F_49E_50V_52G_53A_54Y_55F_67L): 2.743
- B08_logFC (Degron-ID 1091, SEQ ID NO 2265, 46F_47F_49N_50I_52G_53A_54N_55F_67L): 2.903
- B08_logFC (Degron-ID 1095, SEQ ID NO 2275, 46F_47F_49N_50I_52G_53A_54S_55F_67L): 2.882
- B08_logFC (Degron-ID 1096, SEQ ID NO 2340, 46F_47F_49N_50I_52G_53A_54T_55F_67L): 2.704
- B08_logFC (Degron-ID 1146, SEQ ID NO 2305, 46F_47F_49P_50I_52G_53A_54H_55F_67L): 2.792
- B08_logFC (Degron-ID 1147, SEQ ID NO 2343, 46F_47F_49P_50I_52G_53A_54I_55F_67L): 2.701
- B08_logFC (Degron-ID 1149, SEQ ID NO 2361, 46F_47F_49P_50I_52G_53A_54L_55F_67L): 2.65
- B08_logFC (Degron-ID 1154, SEQ ID NO 2333, 46F_47F_49P_50I_52G_53A_54R_55F_67L): 2.724
- B08_logFC (Degron-ID 1159, SEQ ID NO 2293, 46F_47F_49P_50I_52G_53A_54Y_55F_67L): 2.817
- B08_logFC (Degron-ID 1186, SEQ ID NO 2321, 46F_47F_49P_50V_52G_53A_54H_55F_67L): 2.754
- B08_logFC (Degron-ID 1192, SEQ ID NO 2303, 46F_47F_49P_50V_52G_53A_54P_55F_67L): 2.797
- B08_logFC (Degron-ID 1440, SEQ ID NO 2337, 46F_47H_49D_50I_52G_53A_54A_55F_67L): 2.712
- B08_logFC (Degron-ID 1541, SEQ ID NO 2267, 46F_47H_49E_50V_52G_53A_54C_55F_67L): 2.901
- B08_logFC (Degron-ID 1552, SEQ ID NO 2268, 46F_47H_49E_50V_52G_53A_54P_55F_67L): 2.901
- B08_logFC (Degron-ID 1572, SEQ ID NO 2307, 46F_47H_49N_50I_52G_53A_54P_55F_67L): 2.781
- B08_logFC (Degron-ID 1575, SEQ ID NO 2324, 46F_47H_49N_50I_52G_53A_54S_55F_67L): 2.75
- B08_logFC (Degron-ID 1635, SEQ ID NO 2315, 46F_47H_49P_50I_52G_53A_54S_55F_67L): 2.766
- B08_logFC (Degron-ID 1660, SEQ ID NO 2328, 46F_47H_49P_50V_52G_53A_54A_55F_67L): 2.746
- B08_logFC (Degron-ID 1673, SEQ ID NO 2281, 46F_47H_49P_50V_52G_53A_54Q_55F_67L): 2.855
- B08_logFC (Degron-ID 1812, SEQ ID NO 2277, 46F_47I_49N_50I_52G_53A_54P_55F_67L): 2.872
- B08_logFC (Degron-ID 2412, SEQ ID NO 2342, 46F_47M_49D_50I_52G_53A_54P_55F_67L): 2.702
- B08_logFC (Degron-ID 2832, SEQ ID NO 2294, 46F_47N_49P_50I_52G_53A_54P_55F_67L): 2.815
- B08_logFC (Degron-ID 2940, SEQ ID NO 2314, 46F_47Q_49E_50I_52G_53A_54A_55F_67L): 2.768
- B08_logFC (Degron-ID 2955, SEQ ID NO 2358, 46F_47Q_49E_50I_52G_53A_54S_55F_67L): 2.66
- B08_logFC (Degron-ID 2957, SEQ ID NO 2350, 46F_47Q_49E_50I_52G_53A_54V_55F_67L): 2.675
- B08_logFC (Degron-ID 2987, SEQ ID NO 2341, 46F_47Q_49E_50V_52G_53A_54I_55F_67L): 2.703
- B08_logFC (Degron-ID 3012, SEQ ID NO 2271, 46F_47Q_49N_50I_52G_53A_54P_55F_67L): 2.893
- B08_logFC (Degron-ID 3100, SEQ ID NO 2338, 46F_47Q_49P_50V_52G_53A_54A_55F_67L): 2.707
- B08_logFC (Degron-ID 3172, SEQ ID NO 2291, 46F_47R_49D_50V_52G_53A_54P_55F_67L): 2.82
- B08_logFC (Degron-ID 3252, SEQ ID NO 2349, 46F_47R_49N_50I_52G_53A_54P_55F_67L): 2.676
- B08_logFC (Degron-ID 3360, SEQ ID NO 2289, 46F_47S_49D_50I_52G_53A_54A_55F_67L): 2.823
- B08_logFC (Degron-ID 3421, SEQ ID NO 2287, 46F_47S_49E_50I_52G_53A_54C_55F_67L): 2.828
- B08_logFC (Degron-ID 3433, SEQ ID NO 2323, 46F_47S_49E_50I_52G_53A_54Q_55F_67L): 2.75
